{"source": "patent US8679304B2", "about": "“Apparatus for creating bioactive solution” (priority 2008, dated 2014)", "origin": "cited, not measured here", "tested_on": "Cryptosporidium oocysts", "conditions": "pH 7", "data": [{"smiles": "[O][Cl+][O-]", "note": "[chlorine dioxide]", "values": [{"measurement": "approximate CT values for 99% inactivation", "result": "~78"}]}]}
